The values below come from patent publication US5710015A, “cDNA cloning of inositol monophosphatase” (Merck, Sharp & Dohme, Ltd., priority 1992, dated 1998).

One may read the Km as the substrate concentration at which the rate is half of its maximum.

Like-named read-outs stand apart in the source and are kept apart here.

For series [1], the target named is T1, native bovine brain inositol monophosphatase (Bos taurus, UniProt P20456).
T1 construct: both the native and recombinant bovine enzymes; from tissue; host or cells: bovine brain
T1 sequence (P20456 1-277): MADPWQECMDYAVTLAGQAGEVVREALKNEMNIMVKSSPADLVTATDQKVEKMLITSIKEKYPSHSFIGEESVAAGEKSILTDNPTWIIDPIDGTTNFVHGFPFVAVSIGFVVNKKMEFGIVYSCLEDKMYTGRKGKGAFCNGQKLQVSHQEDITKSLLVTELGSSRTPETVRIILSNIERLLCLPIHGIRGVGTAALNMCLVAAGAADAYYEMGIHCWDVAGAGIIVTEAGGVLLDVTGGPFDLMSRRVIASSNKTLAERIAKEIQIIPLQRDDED
The settings on record: bovine brain enzyme, as reported in Gee et al., but confirmed here, cited from earlier work.

Series [2] has as its target T2, recombinant human brain inositol monophosphatase (IMP), SEQ. ID NO. 2, expressed in E. coli BL21-DE3 (Homo sapiens, UniProt P29218).
T2 sequence (P29218 1-277): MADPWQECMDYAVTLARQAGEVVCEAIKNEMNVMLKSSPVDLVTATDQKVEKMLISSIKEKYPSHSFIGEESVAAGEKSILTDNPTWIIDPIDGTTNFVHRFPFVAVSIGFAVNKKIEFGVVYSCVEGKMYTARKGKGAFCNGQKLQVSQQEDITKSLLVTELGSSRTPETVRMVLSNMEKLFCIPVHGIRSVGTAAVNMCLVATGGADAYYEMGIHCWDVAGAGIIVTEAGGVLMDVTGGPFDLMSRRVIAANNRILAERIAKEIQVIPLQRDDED
Description: Kinetics and inhibition of recombinant human inositol monophosphatase ([14C]inositol release from DL-Ins(1)P).
Description: Initial rates determined with several substrate concentrations were fitted to a Michaelis-Menten expression by non-linear least-squares regression analysis. […] Bovine brain values are as reported in Gee et al., supra, but confirmed here.
(§1) All comparisons are from data obtained in parallel experiments carried out in this study.
One unit of enzyme activity represents 1 μmol of substrate hydrolysed/min, at 37° C. Protein concentrations were determined by the method of Bradford [Bradford, M., (1976), Anal. Biochem., 72, pp. 248-252]. Kinetic analyses were performed as described previously [Gee et al., supra].

For series [3], the target named is T3, bovine inositol monophosphatase (bovine enzyme, source not specified) (Bos taurus, UniProt P20456).
T3 sequence (P20456 1-277): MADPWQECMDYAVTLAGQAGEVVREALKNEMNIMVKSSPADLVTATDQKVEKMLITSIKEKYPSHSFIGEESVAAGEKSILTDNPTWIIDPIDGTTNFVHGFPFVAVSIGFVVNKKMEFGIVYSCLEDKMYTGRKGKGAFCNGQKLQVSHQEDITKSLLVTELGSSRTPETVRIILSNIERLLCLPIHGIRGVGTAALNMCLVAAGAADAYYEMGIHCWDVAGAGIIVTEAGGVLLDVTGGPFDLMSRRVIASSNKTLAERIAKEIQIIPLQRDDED
In words: Inhibition of bovine inositol monophosphatase (parallel comparison). Format: biochemical. The settings on record: parallel experiment.
Description: as §1
One unit of enzyme activity represents 1 μmol of substrate hydrolysed/min, at 37° C. […] Kinetic analyses were performed as described previously [Gee et al., supra].

Substrate in series [4]: O=P(O)(O)O[C@@H]1[C@H](O)[C@H](O)[C@@H](O)[C@H](O)[C@H]1O
Description: purified protein, by the assay type. As to conditions: mean ± S.E.M. (n=3).

On to `O=P(O)(O)O[C@@H]1[C@H](O)[C@H](O)[C@@H](O)[C@H](O)[C@H]1O` (relative stereo) [DL-Ins(1)P], for which the Vmax in series [1] (substrate DL-Ins(1)P) is 13.3 ± 0.9 μmol/min per mg of protein. For the same molecule, in series [1] (read-out: Km for DL-Ins(1)P), the Michaelis-Menten constant (Km) is 160 ± 20 µM.

As to `O=P(O)(O)O[C@H]1CC[C@H](O)C[C@H]1O` [1S-phosphoryloxy-2R,4S-dihydroxycyclohexane], the Ki in series [2] came out at 2.7 µM; in series [3] (competitive inhibitor, read-out: apparent Ki) it was 1.1 µM.

On to `O=P(O)(O)O` [Pi], for which the Ki in series [2] (read-out: Ki (Pi), competitive inhibition, recombinant human IMP) stood at 140 µM; in series [3] (read-out: Ki (Pi)) it was 500 µM.

B1: recombinant bovine inositol monophosphatase (Bos taurus) (protein)
chain: MADPWQECMDYAVTLAGQAGEVVREALKNEMNIMVKSSPADLVTATDQKVEKMLITSIKEKYPSHSFIGEESVAAGEKSILTDNPTWIIDPIDGTTNFVHGFPFVAVSIGFVVNKKMEFGIVYSCLEDKMYTGRKGKGAFCNGQKLQVSHQEDITKSLLVTELGSSRTPETVRIILSNIERLLCLPIHGIRGVGTAALNMCLVAAGAADAYYEMGIHCWDVAGAGIIVTEAGGVLLDVTGGPFDLMSRRVIASSNKTLAERIAKEIQIIPLQRDDED
On to B1, for which, in series [4] (other: bovine recombinant enzyme, 37.0 °C), the Michaelis constant (Km) is 120 ± 7 µM.

B2: recombinant human brain inositol monophosphatase (IMP), SEQ. ID NO. 2, expressed in E. coli BL21-DE3 (Homo sapiens) (protein)
chain: MADPWQECMDYAVTLARQAGEVVCEAIKNEMNVMLKSSPVDLVTATDQKVEKMLISSIKEKYPSHSFIGEESVAAGEKSILTDNPTWIIDPIDGTTNFVHRFPFVAVSIGFAVNKKIEFGVVYSCVEGKMYTARKGKGAFCNGQKLQVSQQEDITKSLLVTELGSSRTPETVRMVLSNMEKLFCIPVHGIRSVGTAAVNMCLVATGGADAYYEMGIHCWDVAGAGIIVTEAGGVLMDVTGGPFDLMSRRVIAANNRILAERIAKEIQVIPLQRDDED
As to B2, the Michaelis constant (Km) in series [4] (other: human recombinant enzyme, 37° C.) stood at 75 ± 3 µM.

B3: native human platelet-derived inositol monophosphatase (Homo sapiens) (protein)
chain: MADPWQECMDYAVTLARQAGEVVCEAIKNEMNVMLKSSPVDLVTATDQKVEKMLISSIKEKYPSHSFIGEESVAAGEKSILTDNPTWIIDPIDGTTNFVHRFPFVAVSIGFAVNKKIEFGVVYSCVEGKMYTARKGKGAFCNGQKLQVSQQEDITKSLLVTELGSSRTPETVRMVLSNMEKLFCIPVHGIRSVGTAAVNMCLVATGGADAYYEMGIHCWDVAGAGIIVTEAGGVLMDVTGGPFDLMSRRVIAANNRILAERIAKEIQVIPLQRDDED
As for B3, the Michaelis constant (Km) in series [4] (other: human platelet enzyme, 37.0 °C) worked out at 108 ± 3 µM.
